According to patent US8697911B2, “Rho kinase inhibitors” (Boehringer Ingelheim International GmbH, priority 2010, dated 2014):

What follows are compounds tested against ROCKII (1-543) (Homo sapiens (Human), UniProt O75116) (assay: IMAP Assay (Assay 2)). Conditions: IMAP fluorescence polarization; 100 μM ATP, 1 nM kinase.
Format: biochemical
Description: This assay is performed using FAM S6 substrate peptide (Catalogue #R7184) and IMAP FP Screening Express Kit detection reagents from Molecular Devices (Sunnyvale, Calif.) in IMAP kinase reaction buffer (Tris-HCl, pH 7.2, 10 mM MgCl2, 0.05% NaN3, 0.1% phosphate-free BSA) containing 1 mM DTT. Test compounds dissolved in neat DMSO at 0.3 mg/mL are serially diluted 1 to 3 for concentration response in 100% DMSO. The DMSO serial dilutions are further diluted 33.33-fold in kinase reaction buffer, and 10 μL of this buffer dilution is transferred to Corning black 96-well half area NBS plates for a final top concentration of 3 μg/mL in 1% DMSO. 10 μL aliquot of 3 nM ROCKII (1-543) diluted in kinase reaction buffer is added to each assay well for a final concentration of 1 nM kinase. 10 μL of a mixture of 600 nM FAM S6 peptide and 300 μM ATP diluted in kinase reaction buffer is added to each well for a final concentration of 200 nM peptide and 100 μM ATP. The kinase reaction mixture is incubated for 60 minutes at room temperature. Positive controls are reaction mixtures containing no test compound and negative controls (blanks) are reaction mixtures containing no kinase. The kinase reaction is stopped by addition of 60 μL IMAP progressive binding reagent (Catalog #R7284) diluted 400-fold in 1× Binding buffer A. After 30 min of incubation at room temperature, the plates are read for fluorescence polarization on Analyst Plate Reader using Ex 485 nm, Em 530 nm, and FL 505 dichroic minor. The mP signals are converted to percent of control (POC) values using the formula: POC=100*(Signal−BCTRL)÷(PCTRL−BCTRL)
Where Signal is the test well signal, BCTRL is the average of background (negative control) well signals on the plate and PCTRL is the average of positive control well signals on the plate. For the concentration-responsive compounds, POC as a function of test compound concentration is fitted to a 4-parameter logistic equation of the form: Y=A+(B−A)/[1+(x/C)D]
Where A, B, C, and D are fitted parameters (parameter B is fixed at zero POC), and x and y are the independent and dependent variables, respectively. The IC50 is determined as the inflection point parameter, C.

ROCKII (1-543), sequence (O75116 1-543, species assumed): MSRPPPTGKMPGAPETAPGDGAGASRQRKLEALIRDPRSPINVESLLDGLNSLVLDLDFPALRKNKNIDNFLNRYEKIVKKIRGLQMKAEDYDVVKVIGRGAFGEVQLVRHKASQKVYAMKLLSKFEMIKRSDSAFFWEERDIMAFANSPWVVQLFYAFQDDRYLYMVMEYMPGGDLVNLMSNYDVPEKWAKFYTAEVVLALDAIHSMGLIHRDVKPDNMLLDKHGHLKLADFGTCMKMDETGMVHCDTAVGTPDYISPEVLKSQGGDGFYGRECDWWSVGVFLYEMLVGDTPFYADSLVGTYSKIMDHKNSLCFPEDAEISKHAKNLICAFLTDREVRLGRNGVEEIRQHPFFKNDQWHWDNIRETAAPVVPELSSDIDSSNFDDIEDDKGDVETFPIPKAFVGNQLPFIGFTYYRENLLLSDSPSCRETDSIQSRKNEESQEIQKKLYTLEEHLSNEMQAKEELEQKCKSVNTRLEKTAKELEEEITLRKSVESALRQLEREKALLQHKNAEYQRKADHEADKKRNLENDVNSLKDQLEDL

Structure (SMILES)	IC50 [pM]
O=C(Nc1nc2c(s1)C[C@@H](N1CCOCC1)CC2)c1cccc(CNC(=O)c2csc(-c3ccncc3)n2)c1 [compound 164]	930
CN(C)[C@H]1CCc2nc(NC(=O)c3cccc(CNC(=O)c4cc(-c5ccncc5)[nH]n4)c3)sc2C1 [compound 207]	200
CN(C)[C@H]1CCc2nc(NC(=O)c3cccc(CNC(=O)c4ccc(-c5cnco5)s4)c3)sc2C1 [compound 128]	370
CN1CCc2ccc(NC(=O)c3cccc(CNC(=O)c4cc5ccc(C(N)=O)cc5n4C)c3)cc2C1 [compound 84]	260
CN(C)[C@H]1CCc2nc(NC(=O)c3cccc(CNC(=O)c4ccc(-c5ccncc5)cc4)c3)sc2C1 [compound 106]	220
Cc1nc(-c2ccncc2)sc1C(=O)NCc1cccc(C(=O)Nc2nc3c(s2)C[C@@H](N(C)C)CC3)c1 [compound 205]	250
CN1CCc2ccc(NC(=O)c3cccc(CNC(=O)N4CCc5c(C#N)cccc54)c3)cc2C1 [compound 201, 4-cyano-2,3-dihydro-indole-1-carboxylic acid 3-(2-methyl-1,2,3,4-tetrahydro-isoquinolin-7-ylcarbamoyl)-benzylamide]	34000
CN(C)[C@H]1CCc2nc(NC(=O)c3cccc(CNC(=O)c4cn5ccc(C#N)cc5n4)c3)sc2C1 [compound 98]	270
CN(C)[C@H]1CCc2nc(NC(=O)c3cccc(CNC(=O)c4csc(-c5cccnc5)n4)c3)sc2C1 [compound 108]	320
Cc1nnnn1-c1ccc(C(=O)NCc2cccc(C(=O)Nc3nc4c(s3)C[C@@H](N3CCOCC3)CC4)c2)cc1 [compound 174]	350
CN1CCc2nc(NC(=O)c3cccc(CNC(=O)c4ccc5cc(O)ccc5c4)c3)sc2C1 [compound 20]	390
O=C(NCc1cccc(C(=O)Nc2nc3c(s2)C[C@@H](N2CCOCC2)CC3)c1)c1ccc(-c2cnco2)cc1 [compound 162]	430

More lines, in order of falling IC50, values ahead:

IC50 [pM]	Structure (SMILES)
4800	N[C@@H]1CCc2nc(NC(=O)c3cccc(CNC(=O)c4csc(-c5ccncc5)n4)c3)sc2C1 [compound 32]
3700	CN1CCc2nc(NC(=O)c3cccc(CNC(=O)c4cn5cc(C(N)=O)ccc5n4)c3)sc2C1 [compound 209]
1900	CN1CCc2nc(NC(=O)c3cccc(CNC(=O)c4ccc(-n5ccnc5)cc4)c3)sc2C1 [compound 2]
870	CN(C)[C@H]1CCc2nc(NC(=O)c3cccc(CNC(=O)c4csc(-c5ccncc5)n4)c3)sc2C1 [compound 140]
520	N#Cc1ccn2cc(C(=O)NCc3cccc(C(=O)Nc4nc5c(s4)C[C@@H](N4CCOCC4)CC5)c3)nc2c1 [compound 148]
410	O=C(NCc1cccc(C(=O)Nc2nc3c(s2)C[C@@H](N2CCOCC2)CC3)c1)c1cccc(-c2cn[nH]c2)c1 [compound 170]
380	O=C(NCc1cccc(C(=O)Nc2nc3c(s2)C[C@@H](N2CCOCC2)CC3)c1)c1ccc(-n2ccnc2)cc1 [compound 172]
370	Cc1nc(-c2ccncc2)sc1C(=O)NCc1cccc(C(=O)Nc2nc3c(s2)C[C@@H](N2CCOCC2)CC3)c1 [compound 168]
320	CN(C)[C@H]1CCc2nc(NC(=O)c3cccc(CNC(=O)c4cccc(-c5cn[nH]c5)c4)c3)sc2C1 [compound 132]
260	CN1CCc2nc(NC(=O)c3cccc(CNC(=O)c4ccc(-c5ccncc5)cc4)c3)sc2C1 [compound 56]
240	CN(C)[C@H]1CCc2nc(NC(=O)c3cccc(CNC(=O)c4ccc(-n5ccnc5)cc4)c3)sc2C1 [compound 134]
220	CN(C)[C@H]1CCc2nc(NC(=O)c3cccc(CNC(=O)c4ccc(-c5cn[nH]c5)s4)c3)sc2C1 [compound 130]
210	CN1CCc2nc(NC(=O)c3cccc(CNC(=O)c4ccc(-c5cnco5)cc4)c3)sc2C1 [compound 12]
210	CN(C)[C@H]1CCc2nc(NC(=O)c3cccc(CNC(=O)c4nnn(-c5nonc5N)c4-c4ccccc4)c3)sc2C1 [compound 138]
180	CN1CCc2nc(NC(=O)c3cccc(CNC(=O)c4ccc(-c5ccncc5)s4)c3)sc2C1 [compound 112]
